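Exposure lasted 48 hours, with cells grown in 96-well plates and compounds tested at five concentrations. The concentration for 50% growth inhibition is given as GI50.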 The source made the active and inactive calls. No stated cut-off is given here; in the data, active = GI50 up to about 1.1 µM and inactive = higher.
How the values were obtained:
Assay in all cases: DTP human tumour cell line panel, 48 h
[1] = system: SR
[2] = system: MDA-MB-231
[3] = system: COLO 205
[4] = system: HCC 2998
[5] = system: Hs-578T
[6] = system: NCI-H23
[7] = system: M14
[8] = system: SK-MEL-28
[9] = system: OVCAR-8
[10] = system: SK-OV-3
[11] = system: SN12C
[12] = system: KM12
[13] = system: NCI-H522
[14] = system: UACC-62
[15] = system: OVCAR-5
[16] = system: NCI-H226
[17] = system: OVCAR-4
[18] = system: EKVX
[19] = system: UO-31
[20] = system: A498

Structure (SMILES) | GI50 [1] | GI50 [2] | GI50 [3] | GI50 [4] | GI50 [5] | GI50 [6] | GI50 [7] | GI50 [8] | GI50 [9] | GI50 [10] | GI50 [11] | GI50 [12] | GI50 [13] | GI50 [14] | GI50 [15] | GI50 [16] | GI50 [17] | GI50 [18] | GI50 [19] | GI50 [20]
C/C(=C\CSCC(N)C(=O)O)CC/C=C(\C)CNc1ccccc1 (stereo not given) | > 100 µM (inactive) | > 100 µM (inactive) | > 100 µM (inactive) | > 100 µM (inactive) | > 100 µM (inactive) | > 100 µM (inactive) | > 100 µM (inactive) | > 100 µM (inactive) | > 100 µM (inactive) | > 100 µM (inactive) | > 100 µM (inactive) | > 100 µM (inactive) | 49 µM (inactive) | > 100 µM (inactive) | > 100 µM (inactive) | > 100 µM (inactive) | > 100 µM (inactive) | > 100 µM (inactive) | 82 µM (inactive) | –
CCOc1cc(C(c2c(O)c3ccccc3oc2=O)c2c(O)c3ccccc3oc2=O)ccc1OC | 28.1 µM (inactive) | 16 µM (inactive) | 20 µM (inactive) | – | 26.8 µM (inactive) | 23.4 µM (inactive) | 19.1 µM (inactive) | 28.1 µM (inactive) | 20 µM (inactive) | 16.7 µM (inactive) | 18.8 µM (inactive) | 18.2 µM (inactive) | 18.3 µM (inactive) | 18.5 µM (inactive) | 19.6 µM (inactive) | 23.3 µM (inactive) | 17.2 µM (inactive) | 21.3 µM (inactive) | 22.8 µM (inactive) | 19.6 µM (inactive)
CC(C)OC(=O)C1(C(C)C)CCc2ccc(C(=O)CCC(=O)O)cc21 (stereo not given) | > 100 µM (inactive) | > 100 µM (inactive) | > 100 µM (inactive) | > 100 µM (inactive) | > 100 µM (inactive) | > 100 µM (inactive) | > 100 µM (inactive) | > 100 µM (inactive) | > 100 µM (inactive) | > 100 µM (inactive) | > 100 µM (inactive) | > 100 µM (inactive) | > 100 µM (inactive) | > 100 µM (inactive) | > 100 µM (inactive) | > 100 µM (inactive) | > 100 µM (inactive) | > 100 µM (inactive) | > 100 µM (inactive) | –
O=c1[nH][nH]c(=S)c(=O)[nH]1 | > 100 µM (inactive) | > 100 µM (inactive) | > 100 µM (inactive) | – | > 100 µM (inactive) | > 100 µM (inactive) | > 100 µM (inactive) | > 100 µM (inactive) | > 100 µM (inactive) | > 100 µM (inactive) | > 100 µM (inactive) | > 100 µM (inactive) | > 100 µM (inactive) | > 100 µM (inactive) | > 100 µM (inactive) | > 100 µM (inactive) | > 100 µM (inactive) | > 100 µM (inactive) | > 100 µM (inactive) | > 100 µM (inactive)
C[C@H]1S[C@H](c2c(Cl)cccc2Cl)N2Cc3ccccc3N=C12 | 8.07 µM (inactive) | 23.9 µM (inactive) | 11.1 µM (inactive) | 14.4 µM (inactive) | 10.8 µM (inactive) | 11 µM (inactive) | 11.6 µM (inactive) | – | – | 17.7 µM (inactive) | 29.2 µM (inactive) | 12 µM (inactive) | – | 9.82 µM (inactive) | 12 µM (inactive) | – | 29.8 µM (inactive) | 10.2 µM (inactive) | 12.4 µM (inactive) | 24.5 µM (inactive)
Nc1cc2c(nnn2C2OC(COCc3ccccc3)C(OCc3ccccc3)C2OCc2ccccc2)c(=O)[nH]1 (stereo not given) | 11.5 µM (inactive) | 21.6 µM (inactive) | 7.33 µM (inactive) | – | 97.1 µM (inactive) | 19.5 µM (inactive) | 13.5 µM (inactive) | 46.9 µM (inactive) | 18.9 µM (inactive) | 33.3 µM (inactive) | 9.59 µM (inactive) | 13 µM (inactive) | 18.9 µM (inactive) | 14.9 µM (inactive) | 27.6 µM (inactive) | 15.5 µM (inactive) | 12.5 µM (inactive) | 6.15 µM (inactive) | 58.1 µM (inactive) | 48.8 µM (inactive)
O=C1Nc2ccc(Br)cc2/C1=N/N1C(=O)C(=O)N(C2CCCCC2)C1=S | 1.19 µM (inactive) | 6.64 µM (inactive) | 2.92 µM (inactive) | 3.64 µM (inactive) | 8.38 µM (inactive) | 7.11 µM (inactive) | 1.64 µM (inactive) | 4.07 µM (inactive) | – | 4.33 µM (inactive) | 3.43 µM (inactive) | 3.48 µM (inactive) | – | 3.05 µM (inactive) | 9.75 µM (inactive) | 7.03 µM (inactive) | 4.44 µM (inactive) | 4.98 µM (inactive) | 1.51 µM (inactive) | 3.76 µM (inactive)
Cc1ccc(C2SC(=N)Nc3c2c(C)nn3C(=O)c2ccc(Cl)cc2)cc1 (stereo not given) | > 10 µM (inactive) | > 10 µM (inactive) | > 10 µM (inactive) | > 10 µM (inactive) | > 10 µM (inactive) | > 10 µM (inactive) | > 10 µM (inactive) | > 10 µM (inactive) | > 10 µM (inactive) | > 10 µM (inactive) | > 10 µM (inactive) | > 10 µM (inactive) | > 10 µM (inactive) | > 10 µM (inactive) | > 10 µM (inactive) | > 10 µM (inactive) | > 10 µM (inactive) | > 10 µM (inactive) | – | –
CC(=O)OC/C=C(/CCl)CCC(Br)C(C)(C)Br.CC(=O)OC/C=C(\CCl)CCC(Br)C(C)(C)Br (stereo not given) | – | > 10 µM (inactive) | > 10 µM (inactive) | > 10 µM (inactive) | > 10 µM (inactive) | > 10 µM (inactive) | > 10 µM (inactive) | > 10 µM (inactive) | > 10 µM (inactive) | > 10 µM (inactive) | > 10 µM (inactive) | > 10 µM (inactive) | > 10 µM (inactive) | > 10 µM (inactive) | > 10 µM (inactive) | > 10 µM (inactive) | > 10 µM (inactive) | > 10 µM (inactive) | > 10 µM (inactive) | > 10 µM (inactive)
CC(=O)O[C@H]1CC2C(C3CCC(C(C)CCC(=O)O)[C@]31C)[C@H](OC(C)=O)C[C@@H]1CC3(CC[C@]21C)OOC1(CC[C@]2(C)C4C[C@H](OC(C)=O)[C@]5(C)C(C(C)CCC(=O)O)CCC5C4[C@H](OC(C)=O)C[C@@H]2C1)OO3 (stereo not given in full) | 3.3 µM (inactive) | 2.01 µM (inactive) | 1.91 µM (inactive) | 2.03 µM (inactive) | 1.5 µM (inactive) | 1.64 µM (inactive) | 2.53 µM (inactive) | 4.09 µM (inactive) | 1.66 µM (inactive) | 4.08 µM (inactive) | 2.42 µM (inactive) | 1.31 µM (inactive) | 1.42 µM (inactive) | – | 1.78 µM (inactive) | 2.04 µM (inactive) | 2.8 µM (inactive) | 2.81 µM (inactive) | 1.74 µM (inactive) | –
CCCCCCCC1(N=[N+]=[N-])C(=O)Nc2ccccc2C1=O (stereo not given) | 24.2 µM (inactive) | 21.7 µM (inactive) | 20 µM (inactive) | 20.6 µM (inactive) | 17.5 µM (inactive) | 18.2 µM (inactive) | 17.7 µM (inactive) | 16.1 µM (inactive) | – | 15.7 µM (inactive) | 18.7 µM (inactive) | 22.5 µM (inactive) | – | 11.3 µM (inactive) | 18.7 µM (inactive) | – | 16.2 µM (inactive) | – | 12.7 µM (inactive) | 0.971 µM (active)
O=C1c2ccccc2C(C2c3ccccc3C(=O)c3cc(Br)ccc32)c2ccc(Br)cc21 (stereo not given) | – | > 100 µM (inactive) | > 100 µM (inactive) | > 100 µM (inactive) | > 100 µM (inactive) | > 100 µM (inactive) | > 100 µM (inactive) | > 100 µM (inactive) | > 100 µM (inactive) | > 100 µM (inactive) | > 100 µM (inactive) | > 100 µM (inactive) | > 100 µM (inactive) | > 100 µM (inactive) | > 100 µM (inactive) | > 100 µM (inactive) | > 100 µM (inactive) | > 100 µM (inactive) | > 100 µM (inactive) | > 100 µM (inactive)
O=c1[nH]c(=O)n([C@@H]2O[C@H](CO)[C@@H](O)[C@@H]2F)cc1I [FIALURIDINE] | – | > 100 µM (inactive) | > 100 µM (inactive) | > 100 µM (inactive) | > 100 µM (inactive) | > 100 µM (inactive) | 77.6 µM (inactive) | > 100 µM (inactive) | > 100 µM (inactive) | > 100 µM (inactive) | > 100 µM (inactive) | > 100 µM (inactive) | > 100 µM (inactive) | > 100 µM (inactive) | > 100 µM (inactive) | > 100 µM (inactive) | > 100 µM (inactive) | > 100 µM (inactive) | > 100 µM (inactive) | 59.4 µM (inactive)
CN(Cc1cnc2nc(N)nc(N)c2n1)c1ccc(C(=O)NC23CC4CC(CC(C4)C2)C3)cc1 | 12.7 µM (inactive) | 14.1 µM (inactive) | 10.4 µM (inactive) | – | 12.9 µM (inactive) | 10.2 µM (inactive) | 4.14 µM (inactive) | – | 7.35 µM (inactive) | 15.2 µM (inactive) | 20.4 µM (inactive) | 12.3 µM (inactive) | – | 3.66 µM (inactive) | 12.2 µM (inactive) | 13.1 µM (inactive) | – | 13.2 µM (inactive) | 11.8 µM (inactive) | 53.6 µM (inactive)
CNC(=O)C1OC(n2cnc3c(NCc4cccc(I)c4)nc(Cl)nc32)C(O)C1O (stereo not given) | 14 µM (inactive) | 22.8 µM (inactive) | 22.5 µM (inactive) | – | 1.55 µM (inactive) | 12.7 µM (inactive) | 10.3 µM (inactive) | – | 13.8 µM (inactive) | 17.2 µM (inactive) | 16.6 µM (inactive) | 12 µM (inactive) | – | 10.1 µM (inactive) | 14 µM (inactive) | 7.69 µM (inactive) | – | 13.5 µM (inactive) | 11.9 µM (inactive) | 13.8 µM (inactive)
